Experimental data published in patent publication US9624229B2, “Pyrimidine-2-amine compounds and their use as inhibitors of JAK kinases” (Rigel Pharmaceuticals, Inc., priority 2008, dated 2017).

These compounds were tested against Ba/F3 V617F cells (Homo sapiens, UniProt O60674, V617F, cells depend on it) (assay: Proliferation assay (Cell Titer-Glo, 72 h) utilizing Ba/F3 V617F cells). Conditions: Ba/F3 V617F cells, proliferation, level of activity given as class symbol, read-out: IC50 (the source's name).
Format: cell-based, mouse
Procedure, shortened: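 Ba/F3 V617F cells in RPMI/10% FBS, 1×10^5 cells/mL, exposed in duplicate to 3-fold serial compound dilutions (top 5 mM DMSO stock, diluted 1:250, added as 2× solution in 5% FBS medium) for 72 h at 37 °C. Viability by Cell Titer-Glo luminescence; IC50 reported.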

Ba/F3 V617F cells, sequence (O60674 whole entry V617F): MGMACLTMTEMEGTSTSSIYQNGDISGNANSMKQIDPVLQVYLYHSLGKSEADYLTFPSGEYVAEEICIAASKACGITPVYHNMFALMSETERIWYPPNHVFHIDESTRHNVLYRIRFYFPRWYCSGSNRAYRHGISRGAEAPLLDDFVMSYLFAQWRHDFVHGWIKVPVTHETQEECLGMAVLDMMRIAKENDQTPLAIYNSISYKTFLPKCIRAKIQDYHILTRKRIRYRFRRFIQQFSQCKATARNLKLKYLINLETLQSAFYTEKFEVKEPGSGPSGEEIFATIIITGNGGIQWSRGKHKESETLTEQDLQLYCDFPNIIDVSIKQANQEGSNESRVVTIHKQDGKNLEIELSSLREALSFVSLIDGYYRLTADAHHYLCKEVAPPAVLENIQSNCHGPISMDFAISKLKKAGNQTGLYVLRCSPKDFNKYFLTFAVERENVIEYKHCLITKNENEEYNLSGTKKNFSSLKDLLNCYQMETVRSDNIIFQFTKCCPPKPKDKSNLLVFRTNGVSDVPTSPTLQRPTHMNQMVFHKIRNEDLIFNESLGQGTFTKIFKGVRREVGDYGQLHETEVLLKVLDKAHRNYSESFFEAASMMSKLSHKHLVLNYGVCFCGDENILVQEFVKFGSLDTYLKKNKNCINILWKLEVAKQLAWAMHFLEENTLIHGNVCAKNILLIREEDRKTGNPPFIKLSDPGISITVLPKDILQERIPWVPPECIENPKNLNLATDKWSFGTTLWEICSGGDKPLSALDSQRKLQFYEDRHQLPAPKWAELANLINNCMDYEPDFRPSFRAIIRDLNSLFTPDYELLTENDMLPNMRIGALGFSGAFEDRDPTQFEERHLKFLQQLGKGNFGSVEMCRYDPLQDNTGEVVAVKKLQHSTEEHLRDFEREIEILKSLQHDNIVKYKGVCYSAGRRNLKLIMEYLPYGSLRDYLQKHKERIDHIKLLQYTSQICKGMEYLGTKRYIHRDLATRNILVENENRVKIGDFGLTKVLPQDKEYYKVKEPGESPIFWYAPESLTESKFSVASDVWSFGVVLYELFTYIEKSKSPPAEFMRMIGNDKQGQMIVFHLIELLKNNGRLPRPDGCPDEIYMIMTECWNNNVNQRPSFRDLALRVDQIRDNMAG

| GI50 [nM] | Structure (SMILES) |
| --- | --- |
| < 1000 | Cc1cc(Nc2nccc(-c3ccc(N4CCCOCC4)nc3)n2)ccc1N1C[C@@H]2C[C@H]1CN2C [compound 206, 4-(6-(1,4-oxazepan-4-yl)pyridin-3-yl)-N-(3-methyl-4-((1S,4S)-5-methyl-2,5-diazabicyclo[2.2.1]heptan-2-yl)phenyl)pyrimidin-2-amine] |
| < 1000 | COCCN(C)c1ccc(-c2ccnc(Nc3ccc(N4CC5(C)CN(C)CC(C)(C4)C5)c(C)c3)n2)cn1 [compound 221, 4-(6-(2-methoxyethyl)(methyl)aminopyridin-3-yl)-N-(3-methyl-4-(1,5,7-trimethyl-3,7-diazabicyclo[3.3.1]nonan-3-yl)phenyl)pyrimidin-2-amine] |
| < 1000 | CC(=O)N1C[C@@H]2C[C@H]1CN2c1ccc(Nc2nccc(-c3ccc(N4CCOCC4)nc3)n2)cc1Cl [compound 259, 4-(6-(morpholin-4-yl)pyridin-3-yl)-N-(3-chloro-4-((1S,4S)-5-acetyl-2,5-diazabicyclo[2.2.1]heptan-2-yl)phenyl)pyrimidin-2-amine] |
| < 1000 | Cc1cc(Nc2nccc(-c3ccc(N4CCOC(CN(C)C)C4)nc3)n2)ccc1N1C[C@@H]2C[C@H]1CN2C (stereo partly drawn) [compound 189, 4-(6-(2-(dimethylamino)methylmorpholin-4-yl)pyridin-3-yl)-N-(3-methyl-4-((1S,4S)-5-methyl-2,5-diazabicyclo[2.2.1]heptan-2-yl)phenyl)pyrimidin-2-amine] |
| < 1000 | Cc1cc(Nc2nccc(-c3ccc(N4CCOCC4)nc3)n2)ccc1N1C[C@@H]2C[C@H]1CN2C [compound 231, 4-(6-(morpholin-4-yl)pyridin-3-yl)-N-(3-methyl-4-((1S,4S)-5-methyl-2,5-diazabicyclo[2.2.1]heptan-2-yl)phenyl)pyrimidin-2-amine] |
| 1000 to 10000 | Cc1cc(Nc2nccc(-c3ccc(N4CCCC(C(N)=O)C4)nc3)n2)ccc1N1C[C@@H]2C[C@H]1CN2C (stereo partly drawn) [compound 191, 4-(6-(3-(aminocarbonyl)piperidin-1-yl)pyridin-3-yl)-N-(3-methyl-4-((1S,4S)-5-methyl-2,5-diazabicyclo[2.2.1]heptan-2-yl)phenyl)pyrimidin-2-amine] |

Same assay, conditions: Ba/F3 V617F cells, proliferation, level of activity to inhibit JAK2, read-out: IC50 (the source's name)

| GI50 [nM] | Structure (SMILES) |
| --- | --- |
| < 1000 | CC(=O)Nc1ccc(-c2ccnc(Nc3ccc(N4C[C@@H]5C[C@H]4CO5)c(C)c3)n2)cn1 [compound 147, 4-(6-(acetamido)pyridin-3-yl)-N-(3-methyl-4-((1S,4S)-5-oxa-2-azabicyclo[2.2.1]heptan-2-yl)phenyl)pyrimidin-2-amine] |
| < 1000 | N#Cc1cc(Nc2nccc(-c3ccc(N4CCOCC4)nc3)n2)ccc1N1C[C@@H]2C[C@H]1CN2C1CCCC1 [compound 119, 4-(6-(morpholin-4-yl)pyridin-3-yl)-N-(3-cyano-4-((1S,4S)-5-cyclopentyl-2,5-diazabicyclo[2.2.1]heptan-2-yl)phenyl)pyrimidin-2-amine] |
| 1000 to 10000 | Cc1cc(Nc2nccc(-c3ccc(NS(C)(=O)=O)nc3)n2)ccc1N1C[C@@H]2C[C@H]1CN2C [compound 151, 4-(6-(methylsulfonylamino)pyridin-3-yl)-N-(3-methyl-4-((1S,4S)-5-methyl-2,5-diazabicyclo[2.2.1]heptan-2-yl)phenyl)pyrimidin-2-amine] |
| < 1000 | Cc1cc(Nc2nccc(-c3ccc(N4CCOCC4)nc3)n2)ccc1N1CC2(C)CN(C)CC(C)(C1)C2 [compound 75, 4-(6-(morpholin-4-yl)pyridin-3-yl)-N-(3-methyl-4-(1,5,7-trimethyl-3,7-diazabicyclo[3.3.1]nonan-3-yl)phenyl)pyrimidin-2-amine] |
| < 1000 | CC(=O)N1CCN(c2ccc(-c3ccnc(Nc4ccc(N5C[C@@H]6C[C@H]5CN6C)c(F)c4)n3)cn2)CC1 [compound 16, 4-(6-(4-acetylpiperazin-1-yl)pyridin-3-yl)-N-(3-fluoro-4-((1S,4S)-5-methyl-2,5-diazabicyclo[2.2.1]heptan-2-yl)phenyl)pyrimidin-2-amine] |
| < 1000 | CN1C[C@H]2C[C@@H]1CN2c1ccc(Nc2nccc(-c3cnc4c(c3)OC(C)(C)C(=O)N4)n2)cc1F [compound 73, 4-(2,2-dimethyl-3-oxo-3,4-dihydro-2H-pyrido[3,2-b][1,4]oxazin-7-yl)-N-(3-fluoro-4-((1R,4R)-5-methyl-2,5-diazabicyclo[2.2.1]heptan-2-yl)phenyl)pyrimidin-2-amine] |
| < 1000 | Cc1cc(Nc2nccc(-c3cncc(C(=O)N4CCOCC4)c3)n2)ccc1N1C[C@@H]2C[C@H]1CN2C [compound 52, 4-(5-((morpholin-4-yl)carbonyl)pyridin-3-yl)-N-(3-methyl-4-((1S,4S)-5-methyl-2,5-diazabicyclo[2.2.1]heptan-2-yl)phenyl)pyrimidin-2-amine] |
| < 1000 | Cc1cc(Nc2nccc(-c3ccc(NCc4ccccc4)nc3)n2)ccc1N1C[C@@H]2C[C@H]1CN2C [compound 80, 4-(6-(benzylamino)pyridin-3-yl)-N-(3-methyl-4-((1S,4S)-5-methyl-2,5-diazabicyclo[2.2.1]heptan-2-yl)phenyl)pyrimidin-2-amine] |
| < 1000 | CN1C[C@@H]2C[C@H]1CN2c1ccc(Nc2nccc(-c3cncc(S(C)(=O)=O)c3)n2)cc1F [compound 101, 4-(5-(methyl)sulfonylpyridin-3-yl)-N-(3-fluoro-4-((1S,4S)-5-methyl-2,5-diazabicyclo[2.2.1]heptan-2-yl)phenyl)pyrimidin-2-amine] |
| 1000 to 10000 | Cc1cc(Nc2nccc(-c3cnc(N4CCOCC4)nc3)n2)ccc1N1C[C@@H]2C[C@H]1CO2 [compound 42, 4-(2-(morpholin-4-yl)pyrimidin-5-yl)-N-(3-methyl-4-((1S,4S)-5-oxa-2-azabicyclo[2.2.1]heptan-2-yl)phenyl)pyrimidin-2-amine] |
| < 1000 | CN1C[C@@H]2C[C@H]1CN2c1ccc(Nc2nccc(-c3ccc(NC(=O)C(C)(C)C)cc3)n2)cc1F [compound 128, 4-(4-(t-butylcarbonylamino)phenyl)-N-(3-fluoro-4-((1S,4S)-5-methyl-2,5-diazabicyclo[2.2.1]heptan-2-yl)phenyl)pyrimidin-2-amine] |
| < 1000 | Cc1cc(Nc2nccc(-c3ccc(NS(C)(=O)=O)cc3)n2)ccc1N1C[C@@H]2C[C@H]1CN2C [compound 136, 4-(4-(methylsulfonylamino)phenyl)-N-(3-methyl-4-((1S,4S)-5-methyl-2,5-diazabicyclo[2.2.1]heptan-2-yl)phenyl)pyrimidin-2-amine] |
| < 1000 | Cc1cc(Nc2nccc(-c3ccc4c(c3)CC(=O)N4)n2)ccc1N1CCN2CCC1C2 (stereo not shown) [compound 121, 4-(2-oxoindolin-5-yl)-N-(3-methyl-4-(1,4-diazabicyclo[3.2.1]octan-4-yl)phenyl)pyrimidin-2-amine] |
| < 1000 | Cc1cnc(Nc2ccc(N3C[C@@H]4C[C@H]3CN4C)c(F)c2)nc1-c1ccc(N(C)C)nc1 [compound 6, 4-(6-(N,N-dimethylamino)pyridin-3-yl)-5-methyl-N-(3-fluoro-4-((1S,4S)-5-methyl-2,5-diazabicyclo[2.2.1]heptan-2-yl)phenyl)pyrimidin-2-amine] |
| < 1000 | Cc1cc(Nc2nccc(-c3ccc(N4CCOCC4)nc3)n2)ccc1N1C[C@@H]2C[C@H]1CN2C [compound 10, 4-(6-(morpholin-4-yl)pyridin-3-yl)-N-(3-methyl-4-((1S,4S)-5-methyl-2,5-diazabicyclo[2.2.1]heptan-2-yl)phenyl)pyrimidin-2-amine] |
| < 1000 | CS(=O)(=O)N1C[C@@H]2C[C@H]1CN2c1ccc(Nc2nccc(-c3ccc(N4CCOCC4)nc3)n2)cc1C#N [compound 117, 4-(6-(morpholin-4-yl)pyridin-3-yl)-N-(3-cyano-4-((1S,4S)-5-methylsulfonyl-2,5-diazabicyclo[2.2.1]heptan-2-yl)phenyl)pyrimidin-2-amine] |
| < 1000 | CN1C[C@@H]2C[C@H]1CN2c1ccc(Nc2nccc(-c3ccc(NC4CCCCC4)nc3)n2)cc1F [compound 79, 4-(6-(cyclohexylamino)pyridin-3-yl)-N-(3-fluoro-4-((1S,4S)-5-methyl-2,5-diazabicyclo[2.2.1]heptan-2-yl)phenyl)pyrimidin-2-amine] |
| < 1000 | Cc1cc(Nc2nccc(-c3ccc(C(=O)Nc4ccccn4)cc3)n2)ccc1N1C[C@@H]2C[C@H]1CN2C [compound 134, 4-(4-((pyridin-2-yl)aminocarbonyl)phenyl)-N-(3-methyl-4-((1S,4S)-5-methyl-2,5-diazabicyclo[2.2.1]heptan-2-yl)phenyl)pyrimidin-2-amine] |
| < 1000 | CN1C[C@@H]2C[C@H]1CN2c1ccc(Nc2nccc(-c3cnc4c(c3)OC(C)(C)C(=O)N4)n2)cc1F [compound 19, 4-(2,2-dimethyl-3-oxo-3,4-dihydro-2H-pyrido[3,2-b][1,4]oxazin-7-yl)-N-(3-fluoro-4-((1S,4S)-5-methyl-2,5-diazabicyclo[2.2.1]heptan-2-yl)phenyl)pyrimidin-2-amine] |
| < 1000 | Cc1cc(Nc2nccc(-c3ccc(N(C)C)nc3)n2)ccc1N1C[C@@H]2C[C@H]1CN2C [compound 1, 4-(6-(N,N-dimethylamino)pyridin-3-yl)-N-(3-methyl-4-((1S,4S)-5-methyl-2,5-diazabicyclo[2.2.1]heptan-2-yl)phenyl)pyrimidin-2-amine] |

Same assay, conditions: inhibition of JAK2 activity, proliferation of Ba/F3 V617F cells, read-out: IC50 (the source's name)

| GI50 [nM] | Structure (SMILES) |
| --- | --- |
| 1000 to 10000 | CC(=O)N1CCN(c2ccc(-c3ccnc(Nc4ccc(N5C[C@@H]6C[C@H]5CN6C)nc4)n3)cn2)CC1 [compound 57, 4-(6-(4-acetylpiperazin-1-yl)pyridin-3-yl)-N-(6-((1S,4S)-5-methyl-2,5-diazabicyclo[2.2.1]heptan-2-yl)pyridin-3-yl)pyrimidin-2-amine] |
| < 1000 | Cc1cc(Nc2nccc(-c3cnc4c(c3)OC(C)(C)C(=O)N4)n2)cnc1N1C[C@@H]2C[C@H]1CN2C [compound 138, 4-(2,2-dimethyl-3-oxo-3,4-dihydro-2H-pyrido[3,2-b][1,4]oxazin-7-yl)-N-(5-methyl-6-((1S,4S)-5-methyl-2,5-diazabicyclo[2.2.1]heptan-2-yl)pyridin-3-yl)pyrimidin-2-amine] |
